Consider 122 compounds from a melting point compilation (Tetko et al.).

For orientation: melting point means the temperature, or range, at which the solid turns liquid. As to `CCSc1ccc(CC(=O)O)cc1`, the melting point fell in the range of 74 to 76 °C. As for `Cc1ccc(C(=O)O)c(Br)c1`, the figure is 143 to 147 °C; as for `O=c1[nH]c(S)nc2sccc12`, 315 to 317 °C. As for `CCOC(=O)c1c(N)sc(C(=O)OC(C)(C)C)c1C`, the figure is 108 to 110 °C; as for `NS(=O)(=O)N1CCC(C(=O)O)CC1`, 177 to 179 °C; as for `COc1ccc(C2=CCNCC2)cc1`, 73 to 75 °C. Compound `CC(O)CN1C(=O)C=CC1=O` (configuration not stated) showed a melting point of 74 to 76 °C. In the case of `Nc1ccc(S(N)(=O)=O)cn1` it was 171 to 173 °C; in that of `Cc1ccc(NC(=O)c2c(F)cccc2Cl)c(C(=O)O)c1`, 249 to 251 °C; in that of `Ic1c[nH]c2ccncc12`, 171 to 173 °C.

On to `O=Cc1sc(N2CCCC2)nc1Cl`, for which the melting point lay in the range of 119 to 121 °C. In the case of `Nc1ccc(S(=O)(=O)Nc2ccccc2Cl)cc1N` it was 203 to 205 °C; in that of `O=Cc1ccc(OCc2ncon2)cc1`, 98 to 100 °C. In the case of `CCS(=O)(=O)Nc1ccc(N)cc1` it was 88 to 90 °C; in that of `FC(F)(F)CNc1ccccn1`, 70 to 72 °C. In the case of `COc1ccc(C(C)CC(=O)O)cc1` (configuration not stated) it was 66 to 68 °C.

Turning to `Fc1cccc(F)c1-n1c(S)nc2ccccc21`, the melting point was in the range of 255 to 257 °C. `CC(C)(C)n1[nH]c(-c2ccccc2)cc1=N` had a melting point of 103 to 105 °C. As for `NCCC(=O)Nc1ccc(C(N)=O)c(Cl)c1`, the figure is 264 to 266 °C; as for `COc1ccc(N)cc1OCc1ccc2ccccc2n1`, 106 to 108 °C; as for `CCC(C)C(O)C(=O)O` (configuration not stated), 45 to 47 °C. In the case of `O=C(O)CCNS(=O)(=O)c1cccc(C(F)(F)F)c1` it was 113 to 115 °C; in that of `O=C(O)c1cc2c(s1)CCCC2`, 179 to 181 °C.

In turn, `COc1ccc2c(CO)cc(=O)oc2c1` displayed a melting point of 177 to 179 °C. In the case of `CN(C(=O)CCl)C(C)(C)C#N` it was 55 to 57 °C; in that of `COc1cccc(Cn2c(N)cc(=O)[nH]c2=O)c1`, 292 to 294 °C. As for `Cc1cc(C)nc(-n2nc(C)c(CC(=O)O)c2C)n1`, the melting point was 249 to 251 °C. In the case of `CC(Oc1cccc(CO)c1)C(=O)O` (configuration not stated) it was 95 to 97 °C; in that of `O=C(O)c1ccc(Cn2nnc3ccccc32)cc1`, 264 to 266 °C; in that of `Cc1c(N)cccc1C(N)=O`, 173 to 175 °C.

`NC(=O)c1cc(Oc2cccc(O)c2)ccn1` displayed a melting point of 124 to 126 °C. The compound `CC1CN=C(Nc2cccc(S(=O)(=O)N(C)C)c2)S1` (configuration not stated) had a melting point of 111 to 113 °C.

Consider `O=Cc1cn(-c2ccccc2)nc1-c1ccc(Br)cc1`, for which the melting point lay in the range of 141 to 143 °C. In the case of `O=S(=O)(Cl)c1ccc(CCCl)cc1` it was 53 to 55 °C. In turn, `COc1ccccc1NS(=O)(=O)c1ccc(O)c(C(=O)O)c1` registered a melting point of 172 to 174 °C. In the case of `CS(=O)(=O)Nc1ccc(Cl)c(N)c1` it was 156 to 158 °C.

As for `Clc1nc(CN2CCCCC2)nc2scc(-c3ccccc3)c12`, the melting point lay within 79 to 81 °C. As for `CSc1ccc(-c2nc(=N)s[nH]2)cc1`, the figure is 189 to 191 °C.

With `O=Cc1ccc(OCCn2cc(C(=O)O)nn2)c(Cl)c1`, the melting point is 189 to 191 °C. Compound `Clc1ccc(OCCCBr)cc1` displayed a melting point of 29 to 34 °C. In the case of `Cc1ccc(-c2csc(N)n2)o1` it was 102 to 104 °C; in that of `O=C(CO)NC1CCCc2ccccc21` (configuration not stated), 114 to 116 °C. In the case of `Fc1ccc(-n2c(S)nc3ccccc32)c(F)c1` it was 191 to 193 °C; in that of `COc1ccccc1N1CC(C(=O)O)CC1=O` (configuration not stated), 139 to 141 °C; in that of `Cc1cc(C(=O)O)c2cc(Br)ccc2n1`, 259 to 261 °C. As for `CCn1c(SCC(=O)O)nnc1-c1cccc(C)c1`, the figure is 281 to 283 °C; as for `N#Cc1csc(C(=O)O)c1`, 224 to 226 °C; as for `O=C1Nc2c(cc(F)cc2[N+](=O)[O-])C1=O`, 176 to 178 °C. Consider `CN(CCOc1ccccc1F)C(=O)CCl`, for which the melting point was in the range of 68 to 70 °C. In the case of `O=C(O)c1cc(S(=O)(=O)N2CCCCC2)ccc1N1CCOCC1` it was 173 to 175 °C; in that of `COc1cc(/C=C/C(=O)O)ccc1OC(C)C`, 83 to 87 °C; in that of `O=Cc1cnc2ccc(Br)cn12`, 162 to 164 °C. `Cc1c(Cl)nn2c(C(F)(F)F)nnc2c1C`: the melting point was 93 to 95 °C.

In turn, `OCCCNC(c1ccccc1)c1ccccc1` displayed a melting point of 62 to 64 °C. In the case of `O=C(c1ccccc1)c1cc(Cl)ccc1Cl` it was 91 to 93 °C; in that of `N#CC(C(=O)CCl)c1nc(-c2ccccc2)cs1` (configuration not stated), 215 to 217 °C. As for `ClCc1cnoc1-c1ccc(Cl)cc1`, the figure is 78 to 80 °C; as for `CCc1c(C)nc2ccccc2c1O`, 279 to 281 °C; as for `C=CCNc1nc(C(=O)OCC)cs1`, 84 to 86 °C.

`COc1ncnc(Cl)c1N` displayed a melting point of 70 to 72 °C. `COCc1ccc(C(=O)O)o1` showed a melting point of 63 to 65 °C.

Regarding `OCc1ccc(Br)cc1Cl`, the melting point lay in the range of 70 to 72 °C.

`O=Cc1cn(-c2ccccc2)nc1-c1cccs1` gave a melting point of 90 to 92 °C. As for `O=C(O)c1ccc([N+](=O)[O-])c(Br)n1`, the figure is 179 to 181 °C; as for `O=S(=O)(c1ccc(S)nc1)N1CCN(Cc2ccccc2)CC1`, 169 to 171 °C; as for `OCCc1ccc(O)c(-n2nc3ccccc3n2)c1`, 120 to 123 °C. As for `O=[N+]([O-])c1cccc2c1CCN2`, the figure is 111 to 113 °C; as for `N#Cc1cccc(CN2C(=O)CCc3ccccc32)c1`, 119 to 121 °C. In turn, `Cc1c(N)cccc1COc1ccccc1` registered a melting point of 94 to 96 °C. As for `CC(C)(C)OC(=O)N1CCN(C(=O)C2CCCNC2)CC1` (configuration not stated), the figure is 119 to 121 °C; as for `CNc1nc2ccccc2[nH]1`, 190 to 192 °C. As for `O=c1[nH]c(-c2ccncc2)no1`, the figure is 259 to 261 °C; as for `O=[N+]([O-])c1cccc2ncnc(O)c12`, 239 to 241 °C; as for `Nc1ccc(S(=O)(=O)NC2CC2)cc1`, 145 to 147 °C. On to `CC(C)N(C)S(=O)(=O)c1cccc(C(=O)O)c1`, for which the melting point is 168 to 170 °C. As for `O=C(O)c1ccn(-c2ccc(Cl)cc2)n1`, the figure is 169 to 171 °C; as for `NC(=O)c1ccc(Cl)cc1N`, 179 to 181 °C. As to `Sc1nnc(-c2ccc(Cl)cc2)n1Cc1ccco1`, the melting point lay within 117 to 119 °C. In the case of `O=C1CCCOc2cc(Br)ccc21` it was 39 to 41 °C; in that of `Cc1cc(C#N)ccc1C(=O)O`, 192 to 194 °C; in that of `CCn1c(=O)c(=O)[nH]c2cc(C(=O)O)ccc21`, 270 to 285 °C. As for `O=C(O)C1CC1c1ccccc1OC(F)F` (configuration not stated), the figure is 63 to 65 °C; as for `CC1(C)NC(=O)N(CC#N)C1=O`, 155 to 157 °C; as for `CS(=O)(=O)CCCBr`, 35 to 37 °C. With `Cc1cc(Cl)n(-c2ccc(C#N)cc2)n1`, the melting point is 103 to 105 °C.

The compound `CC(=O)c1sc(Cc2ccccc2)nc1C` yielded a melting point of 53 to 55 °C.

In the case of `O=C(O)C(F)(F)c1cccc(Cl)c1`, the melting point was 75 to 77 °C. As for `NC(=O)NC(=O)CCCCl`, the figure is 179 to 181 °C. As for `COC(=O)C(C)Cn1cc(Br)cn1` (configuration not stated), the figure is 43 to 45 °C; as for `CC(C)(C)OC(=O)N1CCN(CC(O)c2ccco2)CC1` (configuration not stated), 57 to 59 °C; as for `CC(Cc1nc2ccccc2s1)(C(=O)O)c1ccccc1` (configuration not stated), 193 to 195 °C. The compound `O=Cc1c(-c2ccc(Br)s2)nc2ccccn12` came in with a melting point of 186 to 188 °C. As for `COc1ccc(-c2noc(CCC(=O)O)n2)cc1OC`, the figure is 120 to 122 °C; as for `CC(C)(C)OC(=O)N1CCCCC1(C)C(=O)O` (configuration not stated), 92 to 94 °C. In the case of `CCNC(=O)COc1cccc(C(C)N)c1` (configuration not stated) it was 79 to 81 °C; in that of `O=C1Cc2cc(Br)c(Cl)cc2N1`, 219 to 221 °C; in that of `Nc1nc(Br)ccc1O`, 153 to 155 °C. `O=c1cc(CCl)occ1O` displayed a melting point of 166 to 168 °C. In the case of `CC(C)c1nc(Cl)nc(N(C)C)n1` it was 57 to 59 °C.

Regarding `Cc1cc(C(N)=S)ccc1F`, the melting point is 89 to 91 °C.

In turn, `CCOc1ccc(N2C(=O)c3ccc(C(=O)O)cc3C2=O)cc1` had a melting point of 265 to 267 °C. `O=C(CO)Nc1ccccc1` yielded a melting point of 79 to 81 °C. In the case of `S=C1CCCCN1` it was 92 to 94 °C; in that of `Sc1nc2cc(Cl)ccc2o1`, 277 to 279 °C; in that of `N#Cc1ccc(C(=O)NCC(=O)O)cc1`, 193 to 195 °C. As for `CC(=O)N(CCC#N)C(C)C`, the figure is 59 to 61 °C. As for `CC(C)(CN)S(=O)(=O)c1ccc(Br)cc1`, the figure is 74 to 76 °C.

Compound `c1ccc(-c2nnco2)nc1` gave a melting point of 224 to 226 °C. In the case of `Oc1cccc(-c2nnc[nH]2)c1` it was 192 to 194 °C; in that of `ClCc1cc(Cl)cc2c1OC(c1ccccc1)OC2` (configuration not stated), 111 to 113 °C. In the case of `NC(CO)c1ccc(Br)cc1` (configuration not stated) it was 89 to 91 °C; in that of `Cc1c(C(=O)O)cnn1CCOC1CCCCO1` (configuration not stated), 139 to 141 °C; in that of `CCS(=O)(=O)NC(C)C(=O)O` (configuration not stated), 129 to 131 °C.

In turn, `Nc1nc(C(=O)Nc2ccccc2)cs1` gave a melting point of 169 to 171 °C. As for `Cc1nn(-c2cccc(Cl)c2)c2ncc(Br)cc12`, the figure is 114 to 116 °C.

On to `O=C(O)C1CCCCN1S(=O)(=O)c1cccs1` (configuration not stated), for which the melting point was 107 to 109 °C.

Consider `NC(=O)N1CCCC1C(=O)O` (configuration not stated), for which the melting point lay within 205 to 207 °C.

Consider `COC(=O)CCOc1ccc(N)cc1`, for which the melting point lay within 51 to 53 °C. In the case of `COc1ccccc1NS(=O)(=O)c1ccc2oc(S)nc2c1` it was 109 to 113 °C. As for `O=C(O)c1cc2cccc(Cl)c2o1`, the figure is 243 to 245 °C. As for `CCC(C(=O)O)N1CCCC1=O` (configuration not stated), the figure is 156 to 158 °C. The compound `Nc1nc2cc(-c3ccccc3)cc(Cl)c2o1` had a melting point of 237 to 239 °C.
